The text below walks through data of US9422338B2 (EpoDose LLC, priority 2011, dated 2016).

The target of this test is T1, EPOR (erythropoietin receptor), human recombinant, NSO cells (Homo sapiens, UniProt P19235).
T1 construct: host or cells: NSO cells
T1 sequence (P19235 25-250 limits assumed): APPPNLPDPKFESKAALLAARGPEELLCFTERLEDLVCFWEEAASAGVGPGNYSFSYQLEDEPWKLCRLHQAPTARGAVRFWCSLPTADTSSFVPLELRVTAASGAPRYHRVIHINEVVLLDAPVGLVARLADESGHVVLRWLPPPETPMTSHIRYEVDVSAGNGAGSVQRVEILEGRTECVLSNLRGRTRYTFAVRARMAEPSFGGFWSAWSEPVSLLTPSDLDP
The test is described as follows: EPOR radioligand binding assay ([125I] Erythropoietin competition). The settings on record: for NH (Hill coefficient): slope of competitive binding curve; for Ki (AC-0005-002)/Ki: Ki relative to that of AC-0005-002; for Ki/Ki(EPO): Ki relative to that of EPO. The method, then: IC50 values were determined by a non-linear, least squares regression analysis using MATHIQ™ (computer software for integrating mathematical functions into new or existing software). […] Where presented, the Hill coefficient (nH), defining the slope of the competitive binding curve, was calculated using MATHIQ™.

The mark [1] stands for this setting: Example 1, mimetics varied in N-end, loop and mid sequences.
Where [2] appears, read: Example 2, mimetics varied in loop, mid and C-end.

Where a SMILES comes first, the peptide text is derived from it. Bridges are numbered along the chain shown (N, C = ends). Roman numbers before positions name the chains, in order. [ ]: non-standard residue; d: D form. ξ: configuration not given here. 1Nal = N[C@@H](Cc1cccc2ccccc12)C(=O)O; ξK = NCCCCC(N)C(=O)O; Ava = NCCCCC(=O)O Where only a bound is given, the exact number is not on record here.

Take `CSCC[C@@H]1NC(=O)[C@H](CCCNC(=N)N)NC(=O)C(NC(=O)[C@H](CC(C)C)NC(=O)[C@H](Cc2ccc(O)cc2)NC(=O)[C@H](CC(N)=O)NC(C)=O)CCOCC(C(=O)N[C@@H](CCCCNC(=N)N)C(=O)N2CCC[C@H]2C(=O)NCCCCC(=O)NCCCCC(NC(=O)[C@@H]2CCCN2C(=O)[C@H](CCCCNC(=N)N)NC(=O)C2COCCC(NC(=O)[C@H](CC(C)C)NC(=O)[C@H](Cc3ccc(O)cc3)NC(=O)[C@H](CC(N)=O)NC(C)=O)C(=O)N[C@@H](CCCNC(=N)N)C(=O)N[C@@H](CCSC)C(=O)N3CCC[C@H]3C(=O)N[C@@H](Cc3ccc4ccccc4c3)C(=O)N[C@@H](C(C)C)C(=O)N2)C(N)=O)NC(=O)[C@H](C(C)C)NC(=O)[C@H](Cc2ccc3ccccc3c2)NC(=O)[C@@H]2CCCN2C1=O` (some centres unmarked) [AC-0005-055]: the Ki reads like this: under setting [1], 4.8 nM; under setting [2], 6 nM; (Example 3, Cheng-Prusoff) 5.23 nM; (Example 4, sixth table) 6 nM. Besides, the IC50 runs as follows: (Example 3) 11 nM; (Example 4, fifth table) 10.2 nM; (Example 4, sixth table) 12.6 nM.

Consider `CSCC[C@H]1COC2CCCC2C(=O)N[C@@H](Cc2c[nH]c3ccccc23)C(=O)N[C@@H](C(C)C)C(=O)NC(C(=O)N[C@@H](CCCCNC(=N)N)C(=O)N2CCC[C@H]2C(=O)NCCCCC(=O)NCCCCC(NC(=O)[C@@H]2CCCN2C(=O)[C@H](CCCCNC(=N)N)NC(=O)C2COCCC(NC(=O)[C@H](CC(C)C)NC(=O)[C@H](Cc3ccc(O)cc3)NC(=O)[C@H](CC(N)=O)NC(C)=O)C(=O)N[C@@H](CCCNC(=N)N)C(=O)N[C@@H](CCSC)COC3CCCC3C(=O)N[C@@H](Cc3c[nH]c4ccccc34)C(=O)N[C@@H](C(C)C)C(=O)N2)C(N)=O)COCCC(NC(=O)[C@H](CC(C)C)NC(=O)[C@H](Cc2ccc(O)cc2)NC(=O)[C@H](CC(N)=O)NC(C)=O)C(=O)N[C@@H](CCCNC(=N)N)C(=O)N1` (some centres unmarked) [AC-0005-057], for which, for the setting “Example 3”, the “NH (Hill coefficient)” value stood at 1.84. For the same compound, under “Example 4, fifth table”, the “Ki (AC-0005-002)/Ki” value is given as 379 and the “Ki/Ki(EPO)” value stood at 128.

As to `CSCC[C@@H]1NC(=O)[C@H](CCCNC(=N)N)NC(=O)C(NC(=O)[C@H](CC(C)C)NCOCCCO)CCOCC(C(=O)N[C@@H](CCCCNC(=N)N)C(=O)N2CCC[C@H]2C(=O)NCCCCC(=O)NCCCCC(NC(=O)[C@@H]2CCCN2C(=O)[C@H](CCCCNC(=N)N)NC(=O)C2COCCC(NC(=O)[C@H](CC(C)C)NCOCCCO)C(=O)N[C@@H](CCCNC(=N)N)C(=O)N[C@@H](CCSC)C(=O)N3CCC[C@H]3C(=O)N[C@@H](Cc3c[nH]c4ccccc34)C(=O)N[C@@H](C(C)C)C(=O)N2)C(N)=O)NC(=O)[C@H](C(C)C)NC(=O)[C@H](Cc2c[nH]c3ccccc23)NC(=O)[C@@H]2CCCN2C1=O` (some centres unmarked) [AC-0005-053], where the note is “Example 3”, the “NH (Hill coefficient)” value is reported as 1.86. For the same compound, under “Example 4, fifth table”, the “Ki (AC-0005-002)/Ki” value is 403 and the “Ki/Ki(EPO)” value is 120.

For `CSCC[C@@H]1NC(=O)[C@H](CCCNC(=N)N)NC(=O)C(NC(=O)[C@H](CC(C)C)NC(=O)[C@H](Cc2ccc(O)cc2)NC(=O)[C@H](CC(N)=O)NC(C)=O)CCOCC(C(=O)N[C@@H](CCCCN)C(=O)N2CCC[C@H]2C(=O)NCCCCC(=O)NCCCCC(NC(=O)[C@@H]2CCCN2C(=O)[C@H](CCCCN)NC(=O)C2COCCC(NC(=O)[C@H](CC(C)C)NC(=O)[C@H](Cc3ccc(O)cc3)NC(=O)[C@H](CC(N)=O)NC(C)=O)C(=O)N[C@@H](CCCNC(=N)N)C(=O)N[C@@H](CCSC)C(=O)N[C@@H](Cc3ccccc3)C(=O)N[C@@H](Cc3c[nH]c4ccccc34)C(=O)N[C@@H](C(C)C)C(=O)N2)C(N)=O)NC(=O)[C@H](C(C)C)NC(=O)[C@H](Cc2c[nH]c3ccccc23)NC(=O)[C@H](Cc2ccccc2)NC1=O` (some centres unmarked) [AC-0005-022], the Ki under setting [1] was determined as 17 nM. Also, for the setting “Example 4, fourth table”, the IC50 is 36 nM.

As for `CSCC[C@@H]1NC(=O)[C@H](CCCNC(=N)N)NC(=O)C(NC(=O)[C@H](CC(C)C)NC(=O)[C@H](Cc2ccc(O)cc2)NC(=O)[C@H](CC(N)=O)NC(C)=O)CCOCC(C(=O)N[C@@H](CCCCN)C(=O)N2CCC[C@H]2C(=O)NCCCCC(=O)NCCCCC(NC(=O)[C@@H]2CCCN2C(=O)[C@H](CCCCN)NC(=O)C2COCCC(NC(=O)[C@H](CC(C)C)NC(=O)[C@H](Cc3ccc(O)cc3)NC(=O)[C@H](CC(N)=O)NC(C)=O)C(=O)N[C@@H](CCCNC(=N)N)C(=O)N[C@@H](CCSC)C(=O)NCC(=O)N[C@@H](Cc3c[nH]c4ccccc34)C(=O)N[C@@H](C(C)C)C(=O)N2)C(N)=O)NC(=O)[C@H](C(C)C)NC(=O)[C@H](Cc2c[nH]c3ccccc23)NC(=O)CNC1=O` (some centres unmarked) [AC-0005-018], the Ki was 22 nM under setting [1] and 33 nM (Example 4, fourth table). Further, the IC50 runs as follows: (Example 4, fourth table) 70 nM; (Example 4, second table) 47 nM.

`CSCC[C@@H]1NC(=O)[C@H](CCCNC(=N)N)NC(=O)C(NC(=O)[C@H](CC(C)C)NC(=O)[C@H](Cc2ccc(O)cc2)NC(=O)[C@H](CC(N)=O)NC(C)=O)CCOCC(C(=O)N[C@@H](CCCCNC(=N)N)C(=O)N2CCC[C@H]2C(=O)NCCCOCCC(OCCCNC(=O)[C@@H]2CCCN2C(=O)[C@H](CCCCNC(=N)N)NC(=O)C2COCCC(NC(=O)[C@H](CC(C)C)NC(=O)[C@H](Cc3ccc(O)cc3)NC(=O)[C@H](CC(N)=O)NC(C)=O)C(=O)N[C@@H](CCCNC(=N)N)C(=O)N[C@@H](CCSC)C(=O)N3CCC[C@H]3C(=O)N[C@@H](Cc3ccc4ccccc4c3)C(=O)N[C@@H](C(C)C)C(=O)N2)C(N)=O)NC(=O)[C@H](C(C)C)NC(=O)[C@H](Cc2ccc3ccccc3c2)NC(=O)[C@@H]2CCCN2C1=O` (some centres unmarked) [AC-0005-064]: the Ki under setting [2] came out at 0.6 nM. Moreover, the IC50 (Example 4, sixth table) amounted to 1.3 nM.

As to `CSCC[C@@H]1NC(=O)[C@H](CCCNC(=N)N)NC(=O)C(NC(=O)[C@H](CC(C)C)NC(=O)[C@H](Cc2ccc(O)cc2)NC(C)=O)CCOCC(C(=O)N[C@@H](CCCCNC(=N)N)C(=O)N2CCC[C@H]2C(=O)NCCCCC(=O)NCCCCC(NC(=O)[C@@H]2CCCN2C(=O)[C@H](CCCCNC(=N)N)NC(=O)C2COCCC(NC(=O)[C@H](CC(C)C)NC(=O)[C@H](Cc3ccc(O)cc3)NC(C)=O)C(=O)N[C@@H](CCCNC(=N)N)C(=O)N[C@@H](CCSC)C(=O)N3CCC[C@H]3C(=O)N[C@@H](Cc3c[nH]c4ccccc34)C(=O)N[C@@H](C(C)C)C(=O)N2)C(N)=O)NC(=O)[C@H](C(C)C)NC(=O)[C@H](Cc2c[nH]c3ccccc23)NC(=O)[C@@H]2CCCN2C1=O` (some centres unmarked) [AC-0005-052], the Ki amounted to 11.4 nM under setting [1] and 11.6 nM (Example 3, Cheng-Prusoff). For the same compound, the IC50 is, setting by setting: (Example 3) 24.4 nM; (Example 4, fifth table) 24 nM.

For the compound `CC[C@H](C)[C@@H]1NC(=O)[C@@H]2CCCN2C(=O)CNC(=O)[C@H](CCSC)NC(=O)[C@H](Cc2c[nH]cn2)NC(=O)[C@@H](NC(=O)[C@H](C)NC(=O)[C@H](Cc2ccc(O)cc2)NC(=O)[C@H](CC(C)C)NC(C)=O)CSSC[C@@H](C(=O)NCCCCC(=O)NCCCCC(NC(=O)[C@@H]2CSSC[C@H](NC(=O)[C@H](C)NC(=O)[C@H](Cc3ccc(O)cc3)NC(=O)[C@H](CC(C)C)NC(C)=O)C(=O)N[C@@H](Cc3c[nH]cn3)C(=O)N[C@@H](CCSC)C(=O)NCC(=O)N3CCC[C@H]3C(=O)N[C@@H]([C@@H](C)CC)C(=O)N[C@@H]([C@@H](C)O)C(=O)N[C@@H](Cc3cccc4ccccc34)C(=O)N[C@@H](C(C)C)C(=O)N2)C(N)=O)NC(=O)[C@H](C(C)C)NC(=O)[C@H](Cc2cccc3ccccc23)NC(=O)[C@H]([C@@H](C)O)NC1=O` (some centres unmarked) [AC-0005-006] (I: Ac-LYACHMGPIT[1Nal]VC[ξK]-NH2 / II: Ac-LYACHMGPIT[1Nal]VC[Ava]; disulfide I:4-I:13, II:4-II:13; amide I:14-II:C), the IC50 (Example 4, first table) was over 10000 nM.

In general, Ki refers to a dissociation constant, usually derived from enzyme kinetics or from competition with a known ligand. What is called IC50 is the point on the concentration scale where inhibition reaches its midpoint.
